# Data taken from patent US20230103554A1, “TNFa SIGNALING [sequence] TUMOR-PROMOTING INFLAMMATION THAT CAN BE TARGETED TO THERAPY” (Baylor College of Medicine, priority 2020, published 2023).
# Assays:
# CHLA-255 = experiment: CellTrace Violet proliferation of NB co-cultured with monocytes; assay type: cell-based, human; conditions: CHLA-255 CTV-pulsed + monocytes, 10 μg/mL etanercept, four days
# Method: (15A) TNFα level within co-culture supernatant was determined by TNFα ELISA. Mean TNFα concentration±SD of representative data from two monocyte donors run in triplicate. (FIG. 15B) Supernatant IL-6 levels were determined by ELISA. Mean IL-6 concentration±SD of representative data from two monocyte donors run in triplicate (FIG. 15C) Intracellular IκBα expression level within CD14+GD2− monocyte population was determined by flow cytometry and IκBα MFI was normalized to monocyte only control. Mean normalized IκBα MFI±SD and representative from experiments with two monocyte donors run in triplicate. (FIG. 15D) Intracellular IκBα expression level within CD14-GD2+NB population was determined by flow cytometry and IκBα MFI was normalized to NB only control. […] NB luminescence was used to evaluate relative viability of cell line. Results are normalized mean luminescence±SD, n=6 replicates per condition. […] Cells undergoing multiple (2+) divisions were quantified as a percentage of total cells and normalized to NB (0) and Ctrl (1). […]
# Monocytes were directly cultured with wild-type or TNF, TNFR1, TNFR2 KO NB cell lines in ULA plates for 24 hours. Activation of NF-kB in monocytes and NB was measured by flow cytometry and cytokine production measured by ELISA from co-culture supernatant. […] Luminescence was measured using a TECAN Spark plate reader (TECAN). […]
# SK-N-AS-luc = experiment: NB luminescence viability in monocyte co-culture; assay type: cell-based, human; conditions: SK-N-AS-luc + monocytes, 10 μg/mL etanercept, 72 hours (FIG. 8B)
# Method: (FIG. 8A) Luciferase expressing CHLA-255-luc and SK-NAS-luc were cultured in 1-16,000 pg/mL rhTNF for 48 hours and viability of the cells was measured by luminescence. Data was normalized to untreated control and graphed as % Viability versus Log10 of TNF concentration.
# Monocytes were directly cultured with wild-type or TNF, TNFR1, TNFR2 KO NB cell lines in ULA plates for 24 hours. Activation of NF-kB in monocytes and NB was measured by flow cytometry and cytokine production measured by ELISA from co-culture supernatant. To evaluate the contact-dependence of monocyte activation by NB, monocytes were cultured in ULA plates with seven-day NB conditioned medium mixed 1:1 with complete monocyte medium for 24 hours and analyzed for IL-6 production. […] Luminescence was measured using a TECAN Spark plate reader (TECAN). To evaluate changes in proliferation, NB was pulsed for 10 minutes in CellTrace Violet (2 μM, Invitrogen) and seeded at 100,000 cells per well in a 12-well tissue culture-treated plate. Monocytes were added directly to the NB monolayer at a density of 100,000 per well and incubated for four days. CellTrace Violet expression was analyzed by flow cytometry.
# [1] = tested on: CHLA-255-luc/monocyte xenografts; experiment: CHLA-255-luc/monocyte subcutaneous xenograft in NSG mice; assay type: in vivo, mouse
# Text: (FIG. 16A) In vivo subcutaneous xenograft model. CHLA-255-luc and freshly isolated human monocytes were embedded in Matrigel and injected into the subcutaneous right flank of eight-week female NSG mice. […] (FIG. 16B) Luminescence readings for each mouse (n=10/group) measured in radiance (photons/second/cm2/steradian). (FIG. 16C) Graphical representation of total luminescence per tumor from (FIG. 16B) over time. (FIG. 16D) Mean tumor luminescence over time, two-way ANOVA with Bonferroni multiple comparisons test (n=10 per group). The top line is NB/Mon+Ctrl. (FIG. 16E) Representative tumors for each group following sacrifice at day 21. ** p<0.01;
# Six-week old female NOD/SCID/IL-2Ry-null (NSG) mice were purchased from The Jackson Laboratory and maintained at the Baylor College of Medicine (BCM) animal care facility. At eight-weeks of age, mice were injected in the subcutaneous right flank with either 1×106 CHLA-255-luc (or SK-N-AS-luc) or a combination of 1×106 CHLA-255-luc and 1×10^6 human monocytes (or SK-N-AS-luc/monocyte) embedded in growth factor-reduced Matrigel (Corning) as previously described (54). […] Tumor growth was measured indirectly by weekly bioluminescent imaging (Small Animal Imaging Core Facility, Texas Children's Hospital). After three weeks, mice were euthanized and tumors were saved for IHC (see Tumor IHC) and RNA-seq (see RNA Analysis).
substance,measurement,setting,value
etanercept,reduction of monocyte-induced increase in NB cells undergoing multiple divisions,CHLA-255,56%
same,cell death caused by monocyte-produced TNF (luminescence),SK-N-AS-luc,rescued
same,reduction of tumor growth (luminescence),"[1]; 5 mg/kg (100 μg) i.p. bi-weekly, vs IgG control",65%
same,macroscopic blood vessel development of treated tumors,"[1]; etanercept bi-weekly, vs control tumors",appeared to lack blood vessel development
